# Laboratory results from PubChem BioAssay (NCI).
#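 GI50 = concentration required for 50% inhibition of growth. TGI marks complete inhibition of growth.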
# What was measured:
# Test in all cases: growth of human tumour cells (NCI), 384-well format
# NCI-H322M lung = test system: NCI-H322M lung
# NCI-H460 NSCLC = test system: NCI-H460 NSCLC
# NCI-H522 lung = test system: NCI-H522 lung
# NCI/ADR-RES ovarian = test system: NCI/ADR-RES ovarian
# OVCAR-3 ovarian = test system: OVCAR-3 ovarian
# OVCAR-4 ovarian = test system: OVCAR-4 ovarian
# OVCAR-5 ovarian = test system: OVCAR-5 ovarian
# OVCAR-8 ovarian = test system: OVCAR-8 ovarian
# PC-3 prostate = test system: PC-3 prostate
# RPMI-8226 leukemia = test system: RPMI-8226 leukemia
# RXF 393 renal = test system: RXF 393 renal
# SF-268 CNS = test system: SF-268 CNS
# SF-295 CNS = test system: SF-295 CNS
# SF-539 CNS = test system: SF-539 CNS
# SK-MEL-2 melanoma = test system: SK-MEL-2 melanoma
# SK-MEL-28 melanoma = test system: SK-MEL-28 melanoma
# SK-MEL-5 melanoma = test system: SK-MEL-5 melanoma
# SK-OV-3 ovarian = test system: SK-OV-3 ovarian
# SN12C renal = test system: SN12C renal
# SNB-19 CNS = test system: SNB-19 CNS
# SNB-75 CNS = test system: SNB-75 CNS
# SR leukemia = test system: SR leukemia
# SW-620 colon = test system: SW-620 colon
# T-47D breast = test system: T-47D breast
# TK-10 renal = test system: TK-10 renal
# U251 glioblastoma = test system: U251 glioblastoma
# UACC-257 melanoma = test system: UACC-257 melanoma
# UACC-62 melanoma = test system: UACC-62 melanoma
smiles,measurement,setting,value
O=c1ccn(C2OC(CO)C(O)C2F)c(=O)[nH]1 (stereo unspecified),GI50,NCI-H322M lung,> 100 µM
same,TGI,NCI-H322M lung,> 100 µM
same,GI50,NCI-H460 NSCLC,> 100 µM
same,TGI,NCI-H460 NSCLC,> 100 µM
same,GI50,NCI-H522 lung,> 100 µM
same,TGI,NCI-H522 lung,> 100 µM
same,GI50,NCI/ADR-RES ovarian,> 100 µM
same,TGI,NCI/ADR-RES ovarian,> 100 µM
same,GI50,OVCAR-3 ovarian,> 100 µM
same,TGI,OVCAR-3 ovarian,> 100 µM
same,GI50,OVCAR-4 ovarian,> 100 µM
same,TGI,OVCAR-4 ovarian,> 100 µM
same,GI50,OVCAR-5 ovarian,> 100 µM
same,TGI,OVCAR-5 ovarian,> 100 µM
same,GI50,OVCAR-8 ovarian,> 100 µM
same,TGI,OVCAR-8 ovarian,> 100 µM
same,GI50,PC-3 prostate,> 100 µM
same,TGI,PC-3 prostate,> 100 µM
same,GI50,RPMI-8226 leukemia,> 100 µM
same,TGI,RPMI-8226 leukemia,> 100 µM
same,GI50,RXF 393 renal,> 100 µM
same,TGI,RXF 393 renal,> 100 µM
same,GI50,SF-268 CNS,> 100 µM
same,TGI,SF-268 CNS,> 100 µM
same,GI50,SF-295 CNS,> 100 µM
same,TGI,SF-295 CNS,> 100 µM
same,GI50,SF-539 CNS,> 100 µM
same,TGI,SF-539 CNS,> 100 µM
same,GI50,SK-MEL-2 melanoma,> 100 µM
same,TGI,SK-MEL-2 melanoma,> 100 µM
same,GI50,SK-MEL-28 melanoma,> 100 µM
same,TGI,SK-MEL-28 melanoma,> 100 µM
same,GI50,SK-MEL-5 melanoma,> 100 µM
same,TGI,SK-MEL-5 melanoma,> 100 µM
same,GI50,SK-OV-3 ovarian,> 100 µM
same,TGI,SK-OV-3 ovarian,> 100 µM
same,GI50,SN12C renal,> 100 µM
same,TGI,SN12C renal,> 100 µM
same,GI50,SNB-19 CNS,> 100 µM
same,TGI,SNB-19 CNS,> 100 µM
same,GI50,SNB-75 CNS,> 100 µM
same,TGI,SNB-75 CNS,> 100 µM
same,GI50,SR leukemia,> 100 µM
same,TGI,SR leukemia,> 100 µM
same,GI50,SW-620 colon,> 100 µM
same,TGI,SW-620 colon,> 100 µM
same,GI50,T-47D breast,> 100 µM
same,TGI,T-47D breast,> 100 µM
same,GI50,TK-10 renal,> 100 µM
same,TGI,TK-10 renal,> 100 µM
same,GI50,U251 glioblastoma,> 100 µM
same,TGI,U251 glioblastoma,> 100 µM
same,GI50,UACC-257 melanoma,> 100 µM
same,TGI,UACC-257 melanoma,> 100 µM
same,GI50,UACC-62 melanoma,> 100 µM
same,TGI,UACC-62 melanoma,> 100 µM
